Results from ChEMBL document CHEMBL5346965, “Synthesis of Bleomycin-Inspired RNA Ligands Targeting the Biogenesis of Oncogenic miRNAs” (J Med Chem, 2023).
Active and inactive are the calls of the source. The rule behind the calls is not given here.

Assays:
microRNA 21 [1] = assay: Binding affinity to 5'-fluorescein labeled pre-miR-21 (unknown origin) by fluorescence based assay; format: nucleic-acid assay
microRNA 21 [2] = assay: Inhibition of pre-miR-21 (unknown origin) dicer cleavage activity preincubated for 30 mins followed by RNAase III addition and measured after 30 to 60 mins by FRET method; format: functional
microRNA 21 [3] = assay: Inhibition of pre-miR-21 (unknown origin) dicer cleavage activity preincubated for 30 mins followed by MCF7 cell lysates addition and measured after 30 to 60 mins by FRET method; format: functional, subcellular
[4] = Selectivity index, ratio of IC50 for inhibition of pre-miR-21 (unknown origin) dicer cleavage activity preincubated for 30 mins followed by MCF-7 cell lysates addition and measured after 30 to 60 mins by FRET method to IC50 for inhibition of pre-miR-21 (unknown origin) dicer cleavage activity preincubated for 30 mins followed by RNAase III addition and measured after 30 to 60 mins by FRET method
[5] = Antiproliferative activity against human N13-1300 cells incubated for 72 hrs by WST-1 assay; format: functional, cell-based; details: N13-1300, 72 h
[6] = Antiproliferative activity against human MRC5 cells incubated for 72 hrs by WST-1 assay; format: toxicity, cell-based
U-87 MG = assay: Antiproliferative activity against human U87 cells incubated for 72 hrs by WST-1 assay; format: functional, cell-based, U-87MG ATCC
[7] = Antiproliferative activity against human N15-0385 cells incubated for 72 hrs by WST-1 assay; format: functional, cell-based; details: N15-0385, 72 h
microRNA 21 [8] = assay: Inhibition of pre-miR-21 (unknown origin) dicer cleavage activity upto 1 mM preincubated for 30 mins followed by RNAase III addition and measured after 30 to 60 mins by FRET method; format: functional; details: time 60-90 min

| Kd (microRNA 21 [1]) [µM] | IC50 (microRNA 21 [2]) [µM] | Ratio IC50 [4] | IC50 (microRNA 21 [3]) [µM] | SMILES | also measured |
| --- | --- | --- | --- | --- | --- |
| 0.33 | – | – | – | NCCCCNCCCNC(=O)c1csc(-c2csc(CCNS(=O)(=O)c3ccc4ccccc4c3)n2)n1 | – |
| – | 20.3 | – | – | NCCCCNCCCNC(=O)c1csc(-c2csc(CCNS(=O)(=O)c3c[nH]cn3)n2)n1 | – |
| – | 20.3 | 2.5 | 50.1 | NCCCCNCCCNC(=O)c1csc(-c2csc(CCNCc3ccc4[nH]cnc4c3)n2)n1 | – |
| 0.33 | – | – | – | Cc1ccc(S(=O)(=O)NCCc2nc(-c3nc(C(=O)NCCCNCCCCN)cs3)cs2)cc1 | – |
| – | 3.74 | 1.3 | 4.68 | NCCCCNCCCNC(=O)c1csc(-c2csc(CCNCc3ccc4scnc4c3)n2)n1 | IC50 [5]: 24.5 µM; IC50 at 72 h [6]: > 100 µM; IC50 (U-87 MG): 16.5 µM; IC50 [7]: 44.7 µM |
| – | 31.2 | 6.2 | 195 | NCCCCNCCCNC(=O)c1csc(-c2csc(CCNCc3ccccc3)n2)n1 | – |
| 1.68 | – | – | – | NCCCCNCCCNC(=O)c1csc(-c2csc(CCNC(=O)[C@@H](N)Cc3c[nH]cn3)n2)n1 | – |
| 0.33 | – | – | – | NCCCCNCCCNC(=O)c1csc(-c2csc(CCNS(=O)(=O)c3cccc4cccnc34)n2)n1 | – |
| 0.4 | – | – | – | NCCCCNCCCNC(=O)c1csc(-c2csc(CCNC(=O)c3ccc4cccnc4n3)n2)n1 | – |
| 0.33 | 11.8 | 4.7 | 55.5 | NCCCCNCCCNC(=O)c1csc(-c2csc(CCNS(=O)(=O)c3cc4ccccc4s3)n2)n1 | – |

More lines, now with the values behind:

| SMILES | Kd (microRNA 21 [1]) [µM] | IC50 (microRNA 21 [2]) [µM] | Ratio IC50 [4] | IC50 (microRNA 21 [3]) [µM] | also measured |
| --- | --- | --- | --- | --- | --- |
| NCCCCNCCCNC(=O)c1csc(-c2csc(CCNC(=O)CCCC[C@@H]3SC[C@@H]4NC(=O)N[C@@H]43)n2)n1 | 1.91 | 38.3 | – | – | inhibition (microRNA 21 [3]; time 60-90 min): inactive |
| CC(C)(C)c1ccc(S(=O)(=O)NCCc2nc(-c3nc(C(=O)NCCCNCCCCN)cs3)cs2)cc1 | 0.33 | 16.4 | 5.6 | 92.8 | – |
| NCCCCNCCCNC(=O)c1csc(-c2csc(CCNC(=O)[C@@H](N)CCCCN)n2)n1 | 0.835 | – | – | – | – |
| NCCCCNCCCNC(=O)c1csc(-c2csc(CCN)n2)n1 | 3.63 | – | – | – | inhibition (microRNA 21 [2]; time 60-90 min): inactive; IC50 [5]: 67.3 µM; IC50 at 72 h [6]: 16.6 µM; IC50 (U-87 MG): 37.4 µM; IC50 [7]: > 100 µM |
| Cc1c(N)nc([C@H](CC(N)=O)NC[C@H](N)C(N)=O)nc1C(=O)N[C@H](C(=O)N[C@H](C)[C@@H](O)[C@H](C)C(=O)N[C@H](C(=O)NCCc1nc(-c2nc(C(=O)NCCCNCCCCN)cs2)cs1)[C@@H](C)O)[C@@H](O[C@@H]1O[C@@H](CO)[C@@H](O)[C@H](O)[C@@H]1O[C@@H]1O[C@H](CO)[C@@H](O)[C@H](OC(N)=O)[C@@H]1O)c1cnc[nH]1 | 12.6 | – | – | – | inhibition (microRNA 21 [8]): inactive |
| C#CCCCCC(=O)NCCc1nc(-c2nc(C(=O)NCCCNCCCCN)cs2)cs1 | 1.87 | – | – | – | – |
| Cn1nnc2c(C(N)=O)ncn2c1=O [TEMOZOLOMIDE] | – | – | – | – | IC50 [5]: 20.8 µM; IC50 [7]: > 100 µM |
| Cc1nc(C)c(S(=O)(=O)NCCc2nc(-c3nc(C(=O)NCCCNCCCCN)cs3)cs2)s1 | – | 75.9 | – | – | – |
| CN(C)c1ccc(/N=N/c2ccc(S(=O)(=O)NCCc3nc(-c4nc(C(=O)NCCCNCCCCN)cs4)cs3)cc2)cc1 | 0.076 | 1.62 | 4.3 | 6.93 | IC50 [5]: 22 µM; IC50 at 72 h [6]: > 100 µM; IC50 (U-87 MG): 45.3 µM; IC50 [7]: 37.1 µM |
